test system: LC4-1; assay: selective drug sensitivity score (sDSS, relative to normal bone marrow) (sDSS (score)); higher = more potent and effective on the cell line relative to normal bone marrow cells; conditions: 72 h
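Further: ALL cell lines in 384-well plates, five doses spanning 10,000-fold, each plate scaled between vehicle and 100 µmol/L benzalkonium chloride controls, sDSS an adapted area-under-curve metric.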

| SMILES | selective drug sensitivity score |
| --- | --- |
| Cc1c(-c2ccc(N3CCc4cccc(C(=O)Nc5nc6ccccc6s5)c4C3)nc2C(=O)O)cnn1CC12CC3CC(CC(C3)C1)C2 (top concentration 1000 nM) | -2.26 |
| O=C(NOC[C@H](O)CO)c1ccc(F)c(F)c1Nc1ccc(I)cc1F (top concentration 1000 nM) | 6.24 |
| CO[C@@H](C)Cn1c(=O)n(C)c2cnc3ccc(-c4cncc(C(C)(C)O)c4)cc3c21 (top concentration 2500 nM) | 2.68 |
| Cc1cccc(CC(=O)N2CCc3c2ccc(-c2cn(C)c4ncnc(N)c24)c3F)n1 (top concentration 2500 nM) | 4.72 |
| CNC(=O)c1ccccc1Nc1nc(Nc2ccc3c(c2OC)CCC[C@H](N2CCN(CCO)CC2)C3)ncc1Cl (top concentration 5000 nM) | 2.96 |
| COc1cc2ncnc(Oc3cccc(NC(=O)Nc4cc(C(C)(C)C(F)(F)F)on4)c3)c2cc1OC (top concentration 10000 nM) | 1.1 |
| C[C@@H](Oc1cc(-n2cnc3ccc(CN4CCN(C)CC4)cc32)sc1C(N)=O)c1ccccc1C(F)(F)F (top concentration 10000 nM) | 22.6 |
| Nc1nccc(-c2c(-c3ccc(F)cc3)ncn2C2CCCCC2)n1 (top concentration 10000 nM) | 3.1 |
| O=C(O)c1ccc(-c2c[nH]c3ncc(-c4ccccc4)cc23)cc1C1CCCC1 (top concentration 10000 nM) | -0.94 |
| C[C@@H]1CN(CC(=O)Nc2ccc3c(c2)Cc2cccc(-c4cc(=O)cc(N5CCOCC5)o4)c2S3)C[C@H](C)O1 (top concentration 25000 nM) | 4.12 |
| COc1ccc2[nH]cc(/C=C3\C(=O)Nc4ccc(NC(=O)CCN5CCCCC5)cc43)c2c1 (top concentration 50000 nM) | -0.42 |
| Cc1nn(C)c(COc2ccc(N3CCN(S(=O)(=O)N(C)C)CC3)cc2)c1-c1cccc2c(CCCOc3cccc4ccccc34)c(C(=O)O)n(CCN3CCOCC3)c12 (top concentration 50000 nM) | 6.56 |
| C[C@H](Nc1ncnc2[nH]cnc12)c1cc2ccc(F)cc2nc1-c1ccccn1 [AMG319] (top concentration 1000 nM) | -1.42 |
| C=CCn1c(=O)c2cnc(Nc3ccc(N4CCN(C)CC4)cc3)nc2n1-c1cccc(C(C)(C)O)n1 [AZD1775] (top concentration 10000 nM) | 13.7 |
| NC(=O)Nc1cc(-c2cccc(F)c2)sc1C(=O)N[C@H]1CCCNC1 [AZD7762] (top concentration 1000 nM) | -0.5 |
| Cc1cc([C@@H](C)Nc2ccccc2C(=O)O)c2nc(N3CCOCC3)cc(=O)n2c1 [AZD-6482] (top concentration 2500 nM) | 3.42 |
| CN(C)Cc1c(C(=O)NCCOc2ccc(C(=O)NO)cc2)oc2ccccc12 [Abexinostat] (top concentration 10000 nM) | 4.36 |
| S=C(NCc1ccc2c(c1)OCO2)N1CCN(c2ncnc3c2oc2ccccc23)CC1 [Amuvatinib] (top concentration 10000 nM) | 4.56 |
| CC(=O)OC[C@H]1O[C@@H]([S-])[C@H](OC(C)=O)[C@@H](OC(C)=O)[C@@H]1OC(C)=O.CCP(CC)CC.[Au+] [Auranofin] (top concentration 2500 nM) | 6.34 |

test system: MHH-CALL-3; assay: as above; conditions: 72 h

| SMILES | selective drug sensitivity score |
| --- | --- |
| Cc1c(-c2ccc(N3CCc4cccc(C(=O)Nc5nc6ccccc6s5)c4C3)nc2C(=O)O)cnn1CC12CC3CC(CC(C3)C1)C2 (top concentration 1000 nM) | 9.54 |
| O=C(NOC[C@H](O)CO)c1ccc(F)c(F)c1Nc1ccc(I)cc1F (top concentration 1000 nM) | 14.9 |
| CO[C@@H](C)Cn1c(=O)n(C)c2cnc3ccc(-c4cncc(C(C)(C)O)c4)cc3c21 (top concentration 2500 nM) | -1.42 |
| Cc1cccc(CC(=O)N2CCc3c2ccc(-c2cn(C)c4ncnc(N)c24)c3F)n1 (top concentration 2500 nM) | -0.68 |
| CNC(=O)c1ccccc1Nc1nc(Nc2ccc3c(c2OC)CCC[C@H](N2CCN(CCO)CC2)C3)ncc1Cl (top concentration 5000 nM) | -1.94 |
| COc1cc2ncnc(Oc3cccc(NC(=O)Nc4cc(C(C)(C)C(F)(F)F)on4)c3)c2cc1OC (top concentration 10000 nM) | 0 |
| C[C@@H](Oc1cc(-n2cnc3ccc(CN4CCN(C)CC4)cc32)sc1C(N)=O)c1ccccc1C(F)(F)F (top concentration 10000 nM) | 8.92 |
| Nc1nccc(-c2c(-c3ccc(F)cc3)ncn2C2CCCCC2)n1 (top concentration 10000 nM) | 0.1 |
| O=C(O)c1ccc(-c2c[nH]c3ncc(-c4ccccc4)cc23)cc1C1CCCC1 (top concentration 10000 nM) | 3.76 |
| C[C@@H]1CN(CC(=O)Nc2ccc3c(c2)Cc2cccc(-c4cc(=O)cc(N5CCOCC5)o4)c2S3)C[C@H](C)O1 (top concentration 25000 nM) | -2.18 |
| COc1ccc2[nH]cc(/C=C3\C(=O)Nc4ccc(NC(=O)CCN5CCCCC5)cc43)c2c1 (top concentration 50000 nM) | -5.32 |
| Cc1nn(C)c(COc2ccc(N3CCN(S(=O)(=O)N(C)C)CC3)cc2)c1-c1cccc2c(CCCOc3cccc4ccccc34)c(C(=O)O)n(CCN3CCOCC3)c12 (top concentration 50000 nM) | 2.56 |
| C[C@H](Nc1ncnc2[nH]cnc12)c1cc2ccc(F)cc2nc1-c1ccccn1 [AMG319] (top concentration 1000 nM) | -0.42 |
| C=CCn1c(=O)c2cnc(Nc3ccc(N4CCN(C)CC4)cc3)nc2n1-c1cccc(C(C)(C)O)n1 [AZD1775] (top concentration 10000 nM) | 5.64 |
| NC(=O)Nc1cc(-c2cccc(F)c2)sc1C(=O)N[C@H]1CCCNC1 [AZD7762] (top concentration 1000 nM) | 1.9 |
| Cc1cc([C@@H](C)Nc2ccccc2C(=O)O)c2nc(N3CCOCC3)cc(=O)n2c1 [AZD-6482] (top concentration 2500 nM) | 0.42 |
| CN(C)Cc1c(C(=O)NCCOc2ccc(C(=O)NO)cc2)oc2ccccc12 [Abexinostat] (top concentration 10000 nM) | 15.4 |
| S=C(NCc1ccc2c(c1)OCO2)N1CCN(c2ncnc3c2oc2ccccc23)CC1 [Amuvatinib] (top concentration 10000 nM) | 5.06 |
| CC(=O)OC[C@H]1O[C@@H]([S-])[C@H](OC(C)=O)[C@@H](OC(C)=O)[C@@H]1OC(C)=O.CCP(CC)CC.[Au+] [Auranofin] (top concentration 2500 nM) | 4.04 |

test system: MOLT-4; assay: as above; conditions: 72 h

| SMILES | selective drug sensitivity score |
| --- | --- |
| Cc1c(-c2ccc(N3CCc4cccc(C(=O)Nc5nc6ccccc6s5)c4C3)nc2C(=O)O)cnn1CC12CC3CC(CC(C3)C1)C2 (top concentration 1000 nM) | 23.6 |
| O=C(NOC[C@H](O)CO)c1ccc(F)c(F)c1Nc1ccc(I)cc1F (top concentration 1000 nM) | -1.96 |
| CO[C@@H](C)Cn1c(=O)n(C)c2cnc3ccc(-c4cncc(C(C)(C)O)c4)cc3c21 (top concentration 2500 nM) | 3.38 |
| Cc1cccc(CC(=O)N2CCc3c2ccc(-c2cn(C)c4ncnc(N)c24)c3F)n1 (top concentration 2500 nM) | 3.22 |
| CNC(=O)c1ccccc1Nc1nc(Nc2ccc3c(c2OC)CCC[C@H](N2CCN(CCO)CC2)C3)ncc1Cl (top concentration 5000 nM) | -0.74 |
| COc1cc2ncnc(Oc3cccc(NC(=O)Nc4cc(C(C)(C)C(F)(F)F)on4)c3)c2cc1OC (top concentration 10000 nM) | 0 |
| C[C@@H](Oc1cc(-n2cnc3ccc(CN4CCN(C)CC4)cc32)sc1C(N)=O)c1ccccc1C(F)(F)F (top concentration 10000 nM) | 22.8 |
| Nc1nccc(-c2c(-c3ccc(F)cc3)ncn2C2CCCCC2)n1 (top concentration 10000 nM) | 0.4 |
| O=C(O)c1ccc(-c2c[nH]c3ncc(-c4ccccc4)cc23)cc1C1CCCC1 (top concentration 10000 nM) | -0.94 |
